Measured values as given in patent publication US10363239B2, “Method for inhibiting growth of cancer cells” (Pain Therapeutics, Inc., priority 2013, dated 2019).

Test system: glioblastoma cells
Experiment: Glucose deprivation-induced apoptosis markers (cleaved PARP-1, caspase-3) by Western blotting
Assay type: cell-based, human
Conditions: 1 nM; Day 3 and 4
Protocol: . The resultant cell lysates were size-fractionated on SDS-PAGE and Western blotting with antibodies specific for Cleaved […] (Asp214) and caspase-3 (Asp175). The protein bands were quantified by densitometric scanning. […] . Data are mean±S.E.M. of ratios (FIG. 3B) and % inhibition (FIG. 3C). […] N=5. *p<0.01 compared to Day 0. #p<0.01 compared to vehicle (open bars).
. The cells were washed with PBS, incubated in 0.1% fetal bovine serum (FBS) for 16 hours and incubated in glucose-free 0.1% FBS-containing medium for up to 4 days in the presence of vehicle or 1 nM Compound C0105. The cells in the entire well were collected by centrifugation. […] The protein concentrations were measured by the Bradford method.
The cells were homogenized and the obtained homogenates were centrifuged to remove nucleus and mitochondria. […] The level of apoptotic cell death was determined using Western blotting in 50 μg solubilized cell lysates with antibodies against cleaved PARP-1 (Asp^214) and caspase-3 (Asp^175), both at 1:1000 dilution. […] Bands at the relevant molecular masses of Ki67 and PCNA were quantified by densitometric scan. Membranes were stripped, washed 5× in 0.1% PBST (2 minutes each wash) and the actin content analyzed by immunoblotting using monoclonal anti-actin to illustrate even loading.

With `CN1CCC2(CC1)NCC(=O)N2Cc1ccccc1` [Compound C0105] the “Glucose deprivation-induced cell death by cleaved PARP-1 and caspase-3” value was “attenuates glucose deprivation-induced cell death”.
